Experimental data reported in US20250269072A1, “PROCESSES FOR PREPARING RADIOLABELLED CONJUGATES” (CENTENARY INSTITUTE OF CANCER MEDICINE AND CELL BIOLOGY, priority 2021, published 2025).
Where “and” joins values, the source holds several entries; their conditions need not be identical. Equal values may be shown once.

Assay: Human studies: radiation dosimetry of subjects 1-4 (Olinda/EXM)
Type: in vivo
Description: For subjects 1-4, radiation dosimetry was calculated using Olinda/EXM based on the organ biodistribution discussed above.
Tables 7-10 show the estimate for radiation dosimetry for subjects 1˜4 of 200 MBq of ^68Ga NODAGA GSAO for individual organs and for the whole body in mSv/MBq (EDE cont.=effective dose equivalent contribution, ED Cont.=effective dose contribution). The estimated whole-body dose from the one (1) low dose CT and two (2) ultra-low dose CTs was 9.2 mSv.

[1] = Pancreas, subjects 1-4 = the 7th table-the 10th table
[2] = Red Marrow, subjects 1-4 = the 7th table-the 10th table
[3] = Skin, subjects 1-4 = the 7th table-the 10th table
[4] = Small Intestine, subjects 1-4 = the 7th table-the 10th table
[5] = Spleen, subjects 1-4 = the 7th table-the 10th table
[6] = Stomach Wall, subjects 1-4 = the 7th table-the 10th table
[7] = Testes, subject 1 = the 7th table, subject 3 = the 9th table
[8] = Thymus, subjects 1-4 = the 7th table-the 10th table
[9] = Thyroid, subjects 1-4 = the 7th table-the 10th table
[10] = Total Body, subjects 1-4 = the 7th table-the 10th table
[11] = ULI Wall, subjects 1-4 = the 7th table-the 10th table
[12] = Uterus, subjects 1-4 = the 7th table-the 10th table

O=C(O)CNC(=O)[C@H](CSCC(=O)Nc1ccc([As](O)O)cc1)NC(=O)CC[C@H](NC(=O)CCC1C(=O)[O][68Ga]2[O]C(=O)CN3CCN(CCN1CC3)CC(=O)[O]2)C(=O)O (stereo partly drawn) [^68Ga-NODAGA-GSAO]
Photon dose [1]: 4.90E−03 mSv/MBq and 5.90E−03 mSv/MBq and 4.18E−03 mSv/MBq and 5.04E−03 mSv/MBq | Total dose [1]: 1.69E−02 mSv/MBq and 2.21E−02 mSv/MBq and 1.54E−02 mSv/MBq | Alpha dose [2]: 0.00E+00 mSv/MBq | Beta dose [2]: 5.39E−03 mSv/MBq and 6.61E−03 mSv/MBq and 4.29E−03 mSv/MBq and 5.25E−03 mSv/MBq | ED Cont. [2]: 1.09E−03 mSv/MBq and 1.30E−03 mSv/MBq and 8.70E−04 mSv/MBq and 1.13E−03 mSv/MBq | EDE Cont. [2]: 1.09E−03 mSv/MBq and 1.30E−03 mSv/MBq and 8.70E−04 mSv/MBq and 1.13E−03 mSv/MBq | Photon dose [2]: 3.70E−03 mSv/MBq and 4.24E−03 mSv/MBq and 2.96E−03 mSv/MBq and 4.13E−03 mSv/MBq | Total dose [2]: 9.08E−03 mSv/MBq and 1.08E−02 mSv/MBq and 7.25E−03 mSv/MBq and 9.38E−03 mSv/MBq | Alpha dose [3]: 0.00E+00 mSv/MBq | ED Cont. [3]: 5.17E−05 mSv/MBq and 7.01E−05 mSv/MBq and 3.66E−05 mSv/MBq and 5.79E−05 mSv/MBq | EDE Cont. [3]: 0.00E+00 mSv/MBq | Photon dose [3]: 2.03E−03 mSv/MBq and 2.32E−03 mSv/MBq and 1.63E−03 mSv/MBq and 2.26E−03 mSv/MBq | Total dose [3]: 5.17E−03 mSv/MBq and 7.01E−03 mSv/MBq and 3.66E−03 mSv/MBq and 5.79E−03 mSv/MBq | Alpha dose [4]: 0.00E+00 mSv/MBq | ED Cont. [4]: 7.19E−05 mSv/MBq and 9.14E−05 mSv/MBq and 6.51E−05 mSv/MBq and 4.60E−05 mSv/MBq | EDE Cont. [4]: 0.00E+00 mSv/MBq | Photon dose [4]: 5.21E−03 mSv/MBq and 5.57E−03 mSv/MBq and 4.29E−03 mSv/MBq and 5.67E−03 mSv/MBq | Total dose [4]: 1.44E−02 mSv/MBq and 1.83E−02 mSv/MBq and 1.30E−02 mSv/MBq and 9.20E−03 mSv/MBq | Alpha dose [5]: 0.00E+00 mSv/MBq | Beta dose [5]: 1.27E−02 mSv/MBq and 1.48E−02 mSv/MBq and 1.09E−02 mSv/MBq and 1.18E−02 mSv/MBq | ED Cont. [5]: 8.65E−05 mSv/MBq and 1.01E−04 mSv/MBq and 7.35E−05 mSv/MBq and 8.27E−05 mSv/MBq | Photon dose [5]: 4.57E−03 mSv/MBq and 5.34E−03 mSv/MBq and 3.83E−03 mSv/MBq and 4.70E−03 mSv/MBq | Total dose [5]: 1.73E−02 mSv/MBq and 2.02E−02 mSv/MBq and 1.47E−02 mSv/MBq and 1.65E−02 mSv/MBq | Alpha dose [6]: 0.00E+00 mSv/MBq | EDE Cont. [6]: 0.00E+00 mSv/MBq | Photon dose [6]: 3.93E−03 mSv/MBq and 4.97E−03 mSv/MBq and 3.12E−03 mSv/MBq and 4.01E−03 mSv/MBq | Alpha dose [7]: 0.00E+00 mSv/MBq | Beta dose [7]: 1.37E−02 mSv/MBq and 1.22E−02 mSv/MBq | ED Cont. [7]: 3.65E−03 mSv/MBq and 3.27E−03 mSv/MBq | EDE Cont. [7]: 4.56E−03 mSv/MBq and 4.09E−03 mSv/MBq | Photon dose [7]: 4.58E−03 mSv/MBq and 4.18E−03 mSv/MBq | Total dose [7]: 1.83E−02 mSv/MBq and 1.64E−02 mSv/MBq | Alpha dose [8]: 0.00E+00 mSv/MBq | ED Cont. [8]: 3.06E−05 mSv/MBq and 4.18E−05 mSv/MBq and 2.16E−05 mSv/MBq and 3.38E−05 mSv/MBq | EDE Cont. [8]: 0.00E+00 mSv/MBq | Photon dose [8]: 2.96E−03 mSv/MBq and 3.66E−03 mSv/MBq and 2.30E−03 mSv/MBq and 3.23E−03 mSv/MBq | Total dose [8]: 6.11E−03 mSv/MBq and 8.36E−03 mSv/MBq and 4.32E−03 mSv/MBq and 6.76E−03 mSv/MBq | Alpha dose [9]: 0.00E+00 mSv/MBq | Beta dose [9]: 1.12E−02 mSv/MBq and 1.19E−02 mSv/MBq and 8.46E−03 mSv/MBq and 1.34E−02 mSv/MBq | ED Cont. [9]: 7.05E−04 mSv/MBq and 7.59E−04 mSv/MBq and 5.42E−04 mSv/MBq and 8.18E−04 mSv/MBq | EDE Cont. [9]: 4.23E−04 mSv/MBq and 4.55E−04 mSv/MBq and 3.25E−04 mSv/MBq and 4.91E−04 mSv/MBq | Photon dose [9]: 2.86E−03 mSv/MBq and 3.24E−03 mSv/MBq and 2.38E−03 mSv/MBq and 3.00E−03 mSv/MBq | Total dose [9]: 1.41E−02 mSv/MBq and 1.52E−02 mSv/MBq and 1.08E−02 mSv/MBq and 1.64E−02 mSv/MBq | Alpha dose [10]: 0.00E+00 mSv/MBq | Beta dose [10]: 6.33E−03 mSv/MBq and 7.76E−03 mSv/MBq and 4.94E−03 mSv/MBq and 6.96E−03 mSv/MBq | ED Cont. [10]: 0.00E+00 mSv/MBq | EDE Cont. [10]: 0.00E+00 mSv/MBq | Photon dose [10]: 3.44E−03 mSv/MBq and 3.84E−03 mSv/MBq and 2.77E−03 mSv/MBq and 3.92E−03 mSv/MBq | Total dose [10]: 9.78E−03 mSv/MBq and 1.16E−02 mSv/MBq and 7.71E−03 mSv/MBq and 1.09E−02 mSv/MBq | Alpha dose [11]: 0.00E+00 mSv/MBq | EDE Cont. [11]: 0.00E+00 mSv/MBq | Photon dose [11]: 5.20E−03 mSv/MBq and 6.02E−03 mSv/MBq and 4.00E−03 mSv/MBq and 5.50E−03 mSv/MBq | Alpha dose (Urinary Bladder Wall, subjects 1-4 = the 7th table-the 10th table): 0.00E+00 mSv/MBq | Alpha dose [12]: 0.00E+00 mSv/MBq | Photon dose [12]: 1.06E−02 mSv/MBq and 8.98E−03 mSv/MBq and 8.36E−03 mSv/MBq and 1.51E−02 mSv/MBq | estimated effective whole-body dose (administered activity of 200 MBq): 4.3-6.8 mSv | estimated effective whole-body dose for the protocol (first in human protocol incl. CTs, subjects 1-4): 13.5-15.9 mSv | effective whole-body dose (range over subjects 1-4): 2.16×10^−2 to 3.38×10^−2 mSv/MBq | overall estimated radiation dose (subject 1): 14.5 mSv | overall estimated radiation dose (subject 2): 13.9 mSv | overall estimated radiation dose (subject 3): 13.5 mSv | overall estimated radiation dose (subject 4): 15.9 mSv | Effective Dose (whole body, subjects 1-4 = the 7th table-the 10th table): 2.63E−02 mSv/MBq and 2.35E−02 mSv/MBq and 2.16E−02 mSv/MBq and 3.38E−02 mSv/MBq
